{
  "source": "paper PMC9541094",
  "about": "(Chemistry (Weinheim an der Bergstrasse, Germany), 2022)",
  "system": "tumor spheroids of MDA-MB-231 cells and murine bone marrow derived macrophages",
  "assay": "3D co-culture spheroid viability, alamar blue assay",
  "type": "cell-based, human; murine",
  "settings": "doxorubicin 1.25 μM alone",
  "data": [
    {"smiles": "COc1cccc2c1C(=O)c1c(O)c3c(c(O)c1C2=O)C[C@@](O)(C(=O)CO)C[C@@H]3O[C@H]1C[C@H](N)[C@H](O)[C@H](C)O1", "note": "[doxorubicin]", "values": [
      {"measurement": "3D spheroid viability versus vehicle control", "result": "~100", "unit": "%"}
    ]}
  ]
}
